Assay results taken from ChEMBL document CHEMBL5512632, “Unlocking the potential of 1,4-naphthoquinones: A comprehensive review of their anticancer properties” (Eur J Med Chem, 2024).
Blank lines part the entries; values can stand above or below the compound they belong to.

Assays:
[1] = tested on: SW-620; assay: Cytotoxicity against human SW620 cells incubated for 24 hrs by CCK-8 assay; type: functional, cell-based; settings: SW-620, 24 h
[2] = tested on: SW480; assay: Cytotoxicity against human SW480 cells incubated for 24 hrs by CCK-8 assay; type: functional, cell-based; settings: SW480, 24 h
[3] = tested on: SK-BR-3; assay: Cytotoxicity against human SK-BR-3 cells incubated for 24 hrs by CCK-8 assay; type: functional, cell-based; settings: SK-BR-3, 24 h
[4] = tested on: NCI-H1299; assay: Cytotoxicity against human NCI-H1299 cells incubated for 24 hrs by CCK-8 assay; type: functional, cell-based; settings: NCI-H1299, 24 h
[5] = tested on: A549; assay: Cytotoxicity against human A549 cells incubated for 24 hrs by CCK-8 assay; type: functional, cell-based; settings: A549, 24 h
[6] = tested on: Huh-7; assay: Cytotoxicity against human Huh-7 cells incubated for 24 hrs by CCK-8 assay; type: functional, cell-based; settings: Huh-7, 24 h
[7] = tested on: HepG2; assay: Cytotoxicity against human HepG2 cells incubated for 24 hrs by CCK-8 assay; type: functional, cell-based; settings: HepG2, 24 h
[8] = tested on: MDA-MB-468; assay: Cytotoxicity against human MDA-MB-468 cells incubated for 24 hrs by CCK-8 assay; type: functional, cell-based; settings: MDA-MB-468, 24 h
[9] = tested on: BT-549; assay: Cytotoxicity against human BT-549 cells incubated for 24 hrs by CCK-8 assay; type: functional, cell-based; settings: BT-549, 24 h
[10] = tested on: HCT-116; assay: Cytotoxicity against human HCT-116 cells incubated for 24 hrs by CCK-8 assay; type: functional, cell-based; settings: HCT-116, 24 h
[11] = tested on: MDA-MB-231; assay: Cytotoxicity against human MDA-MB-231 cells incubated for 24 hrs by CCK-8 assay; type: functional, cell-based; settings: MDA-MB-231, 24 h
[12] = tested on: NCI-H460; assay: Cytotoxicity against human NCI-H460 cells incubated for 24 hrs by CCK-8 assay; type: functional, cell-based; settings: NCI-H460, 24 h
[13] = tested on: SW480; assay: Antitumor activity against human SW480 cells xenografted in BALB/c mouse assessed as reduction in tumor volume at 20 mg/kg,po administrated with olaparib for 15 days; type: functional; design: scale not given: the % may be the effect or the level left; settings: time 15 day
[14] = tested on: MCF7; assay: Cytotoxicity against human MCF7 cells incubated for 24 hrs by CCK-8 assay; type: functional, cell-based; settings: MCF7, 24 h
[15] = Antitumor activity against mouse Lewis lung carcinoma cell line implanted in C57BL/6J mouse assessed as reduction in tumor volume at 6 mg/kg administration; type: functional; design: scale not given: the % may be the effect or the level left
[16] = tested on: HCT-116; assay: Antiproliferative activity against human HCT-116 cells incubated for 72 hrs by MTT assay; type: functional, cell-based; settings: HCT-116, 72 h
[17] = tested on: HepG2; assay: Antiproliferative activity against human HepG2 cells incubated for 72 hrs by MTT assay; type: functional, cell-based; settings: HepG2, 72 h
[18] = tested on: A549; assay: Antiproliferative activity against human A549 cells incubated for 72 hrs by MTT assay; type: functional, cell-based; settings: A549, 72 h
[19] = tested on: AGS; assay: Cytotoxicity against human AGS cells incubated for 24 hrs by MTS assay; type: functional, cell-based
[20] = tested on: C6; assay: Antiproliferative activity against rat C6 cells assessed as inhibition of cell growth incubated for 48 hrs by MTS/PMS assay; type: functional, cell-based; settings: C6, 48 h
[21] = tested on: C6; assay: Antitumor activity against rat C6 cells implanted in Wistar rat assessed as reduction in tumor volume at 100 mg/kg,IG administration once daily for 20 days; type: functional; design: scale not given: the % may be the effect or the level left; settings: time 20 day
[22] = Cytotoxicity against human OC3-IV2 cells incubated for 48 hrs by MTT reagent based spectrophotometric analysis; type: functional, cell-based; settings: OC3-IV2, 48 h
[23] = tested on: PC-3; assay: Cytotoxicity against human PC-3 cells incubated for 48 hrs by MTT reagent based spectrophotometric analysis; type: functional, cell-based; settings: PC-3, 48 h
[24] = tested on: U-87 MG; assay: Cytotoxicity against human U87 cells incubated for 48 hrs by MTT reagent based spectrophotometric analysis; type: functional, cell-based, U-87MG ATCC
[25] = tested on: NCI-H1299; assay: Cytotoxicity against human NCI-H1299 cells incubated for 48 hrs by MTT reagent based spectrophotometric analysis; type: functional, cell-based; settings: NCI-H1299, 48 h
[26] = Antitumor activity against human OC3-IV2 cells xenografted in CB17-Prkdcscid/CrlNarl mouse assessed as reduction in tumor size at 2 mg/kg,ip administrated once every 3 days for 2 weeks; type: functional; design: scale not given: the % may be the effect or the level left
[27] = tested on: U-87 MG; assay: Antitumor activity against human U87 cells xenografted in BALB/c mouse assessed as increase in survival time of animal at 1 mg/kg,ip administrated once every 3 days for 40 days; type: functional, U-87MG ATCC; settings: time 40 day
[28] = tested on: HepG2; assay: Antiproliferative activity against human HepG2 cells assessed as inhibition of cell growth incubated upto 48 hrs by MTT assay; type: functional, cell-based; settings: HepG2, 48 h
[29] = Antiproliferative activity against human SUM1315MO2 cells incubated for 24 hrs by CCK-8 assay; type: functional, cell-based; settings: SUM1315MO2, 24 h
[30] = tested on: MDA-MB-231; assay: Antitumor activity against human MDA-MB-231 cells xenografted in mouse assessed as reduction in tumor volume; type: functional
[31] = tested on: MDA-MB-453; assay: Antiproliferative activity against human MDA-MB-453 cells incubated for 24 hrs by CCK-8 assay; type: functional, cell-based; settings: MDA-MB-453, 24 h
[32] = tested on: MDA-MB-231; assay: Antiproliferative activity against human MDA-MB-231 cells incubated for 24 hrs by CCK-8 assay; type: functional, cell-based; settings: MDA-MB-231, 24 h
[33] = tested on: MCF7; assay: Antiproliferative activity against human MCF7 cells incubated for 24 hrs by CCK-8 assay; type: functional, cell-based; settings: MCF7, 24 h
[34] = tested on: MCF7; assay: Antiproliferative activity against human MCF7 cells assessed as inhibition of cell growth incubated for 48 hrs by crystal violet staining based ELISA; type: functional; settings: MCF7, 48 h
[35] = tested on: MDA-MB-231; assay: Antiproliferative activity against human MDA-MB-231 cells assessed as inhibition of cell growth incubated for 48 hrs by crystal violet staining based ELISA; type: functional; settings: MDA-MB-231, 48 h
[36] = tested on: MCF7; assay: Cytotoxicity against human MCF7 cells incubated for 7 days by MTT assay; type: functional, cell-based; settings: MCF7, 168 h
[37] = tested on: EL4; assay: Antitumor activity against mouse EL4 cells implanted in C57BL/6 mouse assessed as increase in survival of animal at 2 mg/kg,ip administrated for 5 consecutive days for 3 weeks; type: functional
[38] = Cytotoxicity against human MCF7/LCC9 cells incubated for 7 days by MTT assay; type: functional, cell-based; settings: MCF7, 168 h
[39] = tested on: HL-60; assay: Cytotoxicity against human HL-60 cells assessed as reduction in cell viability incubated for 48 to 72 hrs by MTT assay; type: functional, cell-based
[40] = Cytotoxicity against human MCF7/LCC2 cells incubated for 7 days by MTT assay; type: functional, cell-based; settings: MCF7/LCC2, 168 h
[41] = tested on: DBTRG-05MG; assay: Antiproliferative activity against human DBTRG-05MG cells assessed as inhibition of cell growth incubated for 72 hrs by cell counting kit method; type: functional, cell-based; settings: Homo sapiens, DBTRG-05MG, 72 h
[42] = tested on: DBTRG-05MG; assay: Antiproliferative activity against human DBTRG-05MG cells assessed as inhibition of cell growth incubated for 72 hrs in presence of sodium orthovanadate by cell counting kit method; type: functional, cell-based
[43] = tested on: HepG2; assay: Cytotoxicity against human HepG2 cells assessed as reduction in cell viability incubated for 48 hrs by MTT reagent based spectrophotometric analysis; type: functional; settings: HepG2, 48 h
[44] = tested on: SK-OV-3; assay: Cytotoxicity against human SK-OV-3 cells assessed as reduction in cell viability incubated for 48 hrs by MTT reagent based spectrophotometric analysis; type: functional; settings: SK-OV-3, 48 h
[45] = tested on: HepG2; assay: Antitumor activity against human HepG2 cells xenografted in BALB/c mouse assessed as reduction in tumor growth at 10 to 20 mg/kg,iv administrated once every 3 days for 3 weeks; type: functional; design: scale not given: the % may be the effect or the level left; settings: dose 10-20 mg/kg
[46] = tested on: HCT-116; assay: Cytotoxicity against human HCT-116 cells assessed as reduction in cell viability incubated for 48 hrs by MTT reagent based spectrophotometric analysis; type: functional; settings: HCT-116, 48 h
[47] = tested on: A253 cell line; assay: Cytotoxicity against human A253 cell line incubated for 48 hrs by MTT assay; type: functional, cell-based; settings: A253, 48 h
[48] = tested on: SCC-9; assay: Cytotoxicity against human SCC-9 cells incubated for 48 hrs by MTT assay; type: functional, cell-based; settings: SCC-9, 48 h
[49] = tested on: SCC-25; assay: Cytotoxicity against human SCC-25 cells incubated for 48 hrs by MTT assay; type: functional, cell-based; settings: SCC-25, 48 h
[50] = tested on: SCC-25; assay: Induction of apoptosis in human SCC-25 cells at 7 uM incubated for 48 hrs by annexin V-FITC/PI staining based flow cytometry relative to control; type: functional

Structure (SMILES): CC(C)=CC[C@H](O)C1=CC(=O)c2c(O)ccc(O)c2C1=O [ALKANNIN]
- IC50 [1]: 4 µM
- IC50 [2]: 4 µM
- IC50 [3]: 4 µM
- IC50 [4]: 4 µM
- IC50 [5]: 4 µM
- IC50 [6]: 4 µM
- IC50 [7]: 4 µM
- IC50 [8]: 4 µM
- IC50 [9]: 4 µM
- IC50 [10]: 4 µM
- IC50 [11]: 4 µM
- IC50 [12]: 4 µM
- Activity [13]: >50%
- IC50 [14]: 4 µM

- IC50 [16]: > 20 µM
- IC50 [17]: 14.8 µM
- IC50 [18]: 1.67 µM
Structure (SMILES): CC(C)=CC[C@H](OC(=O)C1CCOCC1)C1=CC(=O)c2c(O)ccc(O)c2C1=O
- Activity [15]: 63.45%

Structure (SMILES): O=C1C=CC(=O)c2ccccc21 [NAPHTHOQUINONE]
- IC50 [19]: 2.5 µM

Structure (SMILES): CC(C)=CCC1=C(O)C(=O)c2ccccc2C1=O [LAPACHOL]
- IC50 [20]: 3.7 µM
- Activity [21]: 37%

Structure (SMILES): CC1=CC(=O)c2cccc(O)c2C1=O
- IC50 [22]: 5.4 µM
- IC50 [23]: 6 µM
- IC50 [24]: 2.4 µM
- IC50 [25]: 1.5 µM
- Activity [26]: 50%

Structure (SMILES): O=C1C=CC(=O)c2c(O)cccc21 [JUGLONE]
- Activity [27]: 23.6%
- IC50 [28]: 20.4 µM

- IC50 [31]: 6.94 µM
- IC50 [32]: 3.49 µM
- IC50 [33]: 6.45 µM
Structure (SMILES): COC(=O)C(NC(=O)CCCCC1CCSC(c2ccc(OC)cc2)S1)S[C@H](CC=C(C)C)C1=CC(=O)c2c(O)ccc(O)c2C1=O (stereo not given in full)
- IC50 [29]: 10.5 µM
- Activity [30]: 200 mm3

Structure (SMILES): CC1=CC(=O)c2c(O)cccc2C1=O [PLUMBAGIN]
- IC50 [34]: 1.5 µM
- IC50 [35]: 1.5 µM
- IC50 [36]: 1 µM
- Activity [37]: 80%
- IC50 [38]: 1 µM
- IC50 [39]: 1.5 µM
- IC50 [40]: 1 µM

Structure (SMILES): CC1=CC(=O)c2ccccc2C1=O [MENADIONE]
- IC50 [41]: 22 µM
- IC50 [42]: 13 µM

Structure (SMILES): CCCNC(=O)C(Cc1ccccc1)NC1=C/C(=N/O)c2ccccc2C1=O (stereo not given)
- IC50 [43]: 0.16 µM
- IC50 [44]: 0.48 µM
- Activity [45]: >60%
- IC50 [46]: 0.18 µM

Structure (SMILES): Cc1cn([C@H]2C[C@H](N=[N+]=[N-])[C@@H](COC3=C(Cl)C(=O)c4ccccc4C3=O)O2)c(=O)[nH]c1=O
- IC50 [47]: 5.99 µM
- IC50 [48]: 8 µM
- IC50 [49]: 6.15 µM
- Activity [50]: 30%
